Source: ChEMBL document CHEMBL4359854, “Repurposing mosloflavone/5,6,7-trimethoxyflavone-resveratrol hybrids: Discovery of novel p38-α MAPK inhibitors as potent interceptors of macrophage-dependent production of proinflammatory mediators” (Eur J Med Chem, 2019)
pIC50: −log10 of the molar value. The source made the active and inactive calls. No cut-off for these calls is given here.

Key:
[1] = Cytotoxicity against LPS-induced mouse RAW264.7 cells assessed as cell viability at 1 uM incubated for 24 hrs by MTT assay relative to control; format: cell-based; conditions: LPS-induced RAW264.7 cells, read-out: Activity
RAW264.7 [2] = assay: Anti-inflammatory activity in mouse RAW264.7 cells assessed as inhibition of LPS-induced NO production at 1 uM preincubated for 1 hr followed by LPS addition and measured after 24 hrs by Griess reagent-based assay relative to control; format: functional
RAW264.7 [3] = assay: Anti-inflammatory activity in mouse RAW264.7 cells assessed as inhibition of LPS-induced PGE2 production at 1 uM preincubated for 1 hr followed by LPS addition and measured after 24 hrs by EIA relative to control; format: functional
RAW264.7 [4] = assay: Anti-inflammatory activity in mouse RAW264.7 cells assessed as inhibition of LPS-induced PGE2 production preincubated for 1 hr followed by LPS addition and measured after 24 hrs by EIA; format: functional, cell-based
RAW264.7 [5] = assay: Anti-inflammatory activity in mouse RAW264.7 cells assessed as inhibition of LPS-induced PGE2 production at 0.2 uM preincubated for 1 hr followed by LPS addition and measured after 24 hrs by EIA; format: functional, cell-based
RAW264.7 [6] = assay: Anti-inflammatory activity in mouse RAW264.7 cells assessed as inhibition of LPS-induced IL-6 production at 1 uM preincubated for 1 hr followed by LPS addition and measured after 24 hrs by EIA relative to control; format: functional
RAW264.7 [7] = assay: Anti-inflammatory activity in mouse RAW264.7 cells assessed as inhibition of LPS-induced TNFalpha production at 1 uM preincubated for 1 hr followed by LPS addition and measured after 24 hrs by EIA relative to control; format: functional
RAW264.7 [8] = assay: Anti-inflammatory activity in mouse RAW264.7 cells assessed as inhibition of LPS-induced IL-1beta production at 1 uM preincubated for 1 hr followed by LPS addition and measured after 24 hrs by EIA relative to control; format: functional

Row | SMILES | viability at 24 h, 1 µM [1] [%] | inhibition at 1 µM (RAW264.7 [2]) [%] | inhibition at 1 µM (RAW264.7 [3]) [%] | pIC50 (RAW264.7 [4]) | inhibition (RAW264.7 [4]) | inhibition (RAW264.7 [5]) | inhibition at 1 µM (RAW264.7 [6]) [%] | inhibition at 1 µM (RAW264.7 [7]) [%] | inhibition at 1 µM (RAW264.7 [8]) [%]
1 | COc1ccccc1NC(=O)c1cccc(-c2cc(=O)c3c(O)c(OC)c(OC)cc3o2)c1 | 99.4 | 7.19 | 50.5 | 5.62 | Dose-dependent effect | Active | -21.4 | 36.1 | -2.41
2 | COc1ccc(NC(=O)c2cccc(-c3cc(=O)c4c(O)c(OC)c(OC)cc4o3)c2)cc1 | 92.8 | -10.3 | 3.44 |  |  |  | 10.2 | -0.1 | 13.1
3 | COc1cc2oc(-c3ccc(NC(=O)c4ccccc4)cc3)cc(=O)c2c(OC)c1OC | 109 | 9.71 | 7 |  |  |  | -23.2 | -8.22 | -30.2
4 | COc1cccc(C(=O)Nc2ccc(-c3cc(=O)c4c(OC)c(OC)c(OC)cc4o3)cc2)c1 | 111 | 9.41 | 16.1 |  |  |  | -47.5 | -9.17 | 4.65
5 | COc1cccc(NC(=O)c2cccc(-c3cc(=O)c4c(O)c(OC)c(OC)cc4o3)c2)c1 | 103 | 10.9 | 35.4 |  |  |  | 1.96 | 5.85 | 18.5
6 | COc1cc2oc(-c3cccc(NC(=O)c4ccc5c(c4)OCO5)c3)cc(=O)c2c(OC)c1OC | 116 | 7.13 | 17.1 |  |  |  | -9.56 | -40.6 | 38.2
7 | COc1cccc(C(=O)Nc2cccc(-c3cc(=O)c4c(OC)c(OC)c(OC)cc4o3)c2)c1 | 117 | 19.9 | 2.62 |  |  |  | -52.5 | -88 | 75.6
8 | COc1cc2oc(-c3cccc(C(=O)Nc4ccc5c(c4)OCO5)c3)cc(=O)c2c(O)c1OC | 97.1 | -5.15 | -2.8 |  |  |  | 12.8 | -7.5 | 27.1
9 | COc1ccc(C(=O)Nc2cccc(-c3cc(=O)c4c(OC)c(OC)c(OC)cc4o3)c2)cc1 | 102 | 11.1 | 6.21 |  |  |  | -12.5 | 20.4 | 12.2
10 | COc1cc2oc(-c3cccc(NC(=O)c4ccccc4)c3)cc(=O)c2c(OC)c1OC | 95.8 | 3.31 | -11.3 |  |  |  | -17 | 20.9 | 16.5
11 | COc1cc2oc(-c3ccc(NC(=O)c4ccc5c(c4)OCO5)cc3)cc(=O)c2c(OC)c1OC | 63 |  |  |  |  |  |  |  | 
12 | COc1ccc(C(=O)Nc2cccc(-c3cc(=O)c4c(O)c(OC)c(OC)cc4o3)c2)cc1 | 105 | 6.52 | 52.7 |  |  |  | -7.54 | 48.2 | 34.6
13 | COc1cc2oc(-c3cccc(NC(=O)c4ccc5c(c4)OCO5)c3)cc(=O)c2c(O)c1OC | 104 | 7.46 | 49.3 |  |  |  | -6.67 | -12.1 | 11.6
14 | COc1cc2oc(-c3cccc(C(=O)Nc4ccc5c(c4)OCO5)c3)cc(=O)c2c(OC)c1OC | 92 | 17 | 16.1 |  |  |  | 25.7 | 9.94 | -54.4
15 | COc1ccccc1NC(=O)c1cccc(-c2cc(=O)c3c(OC)c(OC)c(OC)cc3o2)c1 | 101 | 20.6 | 42.5 | 5.70 | Dose-dependent effect | Active | -32.2 | 22.9 | 71.2
16 | COc1cccc(C(=O)Nc2cccc(-c3cc(=O)c4c(O)c(OC)c(OC)cc4o3)c2)c1 | 109 | 6.46 | 35.4 |  |  |  | -6.92 | 33.8 | 35.8
17 | COc1ccc(C(=O)Nc2ccc(-c3cc(=O)c4c(OC)c(OC)c(OC)cc4o3)cc2)cc1 | 92.4 | 3.26 | 36.8 |  |  |  | -40.9 | 27.4 | -2.33
18 | COc1cc2oc(-c3cccc(C(=O)Nc4ccccc4)c3)cc(=O)c2c(OC)c1OC | 90.6 | 13 | -10.9 |  |  |  | 12.5 | 24.2 | 86.8
19 | COc1cc2oc(-c3cccc(C(=O)Nc4ccccc4)c3)cc(=O)c2c(O)c1OC | 103 | 5.15 | 20 |  |  |  | -5.27 | 45.6 | 23.3
20 | COc1cccc(NC(=O)c2cccc(-c3cc(=O)c4c(OC)c(OC)c(OC)cc4o3)c2)c1 | 84.2 | 12.3 | -11.4 |  |  |  | 7.66 | 34.1 | 82.6
21 | COc1ccc(NC(=O)c2cccc(-c3cc(=O)c4c(OC)c(OC)c(OC)cc4o3)c2)cc1 | 90 | 6.87 | 2.29 |  |  |  | 19.2 | 25.3 | 128
22 | COc1ccccc1C(=O)Nc1cccc(-c2cc(=O)c3c(OC)c(OC)c(OC)cc3o2)c1 | 99.8 | 1.11 | 33.9 |  |  |  | -15.8 | -83.9 | 25.2
